Measured values from PubChem BioAssay AID1963826 (Molecular Pharmacology Branch, DTP, NCI, 2024).

Tested on: 926638-142-R-J1-PDC complex spheroid viability
Experiment: Anticancer human tumor 926638-142-R-J1-PDC patient-derived endometrial carcinoma cell line growth inhibition [POLQ]
Settings: for IC50: curve of first compound; for viability, T/C: stronger effect = lower value; active = viability on the fitted dose curve at most 10% of control; inactive = the rest
Procedure: Multicellular complex tumor spheroid response to Polymerase (POL) inhibitors (novobiocin, ART-558, RP6685) in combination with a variety of drugs and investigational agents in selected tumor cell lines
The POL inhibitors (novobiocin, ART-558, and RP6685) were evaluated both individually and in combination with standard of care and investigational anticancer small molecules within a complex spheroid model of solid tumors. . Complex spheroids include a stromal component modeled by human endothelial cells (HUVEC) and fibroblasts modeled by human mesenchymal stem cells (MSCs). The concentration ranges selected for each drug and investigational agent were based upon clinically achievable concentrations if the clinical Cmax of the agent was known.
Compounds. The drugs and investigational agents: novobiocin (NSC847541), ART-558 (NSC835418), RP-6685 (NSC848927), peposertib (NSC802822), ceralasertib (NSC780249), elimusertib (NSC800525), camonsertib (NSC841442), AZD-1390 (NSC803789), olaparib (NSC753686), talazoparib (NSC767125), rucaparib (NSC756644), sotorasib (NSC818433), MRTX-1133 (NSC836407), SN-38 (NSC673596), topotecan (NSC609699), epotoside (NSC141540), doxorubicin (NSC123127), gemcitabine (NSC613327), 5-fluorouracil (NSC19893), paclitaxel (NSC125973), vemurafenib (NSC761431), MSA-2 (NSC828583), SN-011 (NSC837082), adavosertib (NSC754352), prexasertib (NSC758257), carboplatin (NSC241240) and oxaliplatin (NSC266046), were obtained from the National Cancer Institute (NCI) Developmental Therapeutics Program Chemical Repository (21). The FDA-approved anticancer drug set is available from the Developmental Therapeutics Program at https://dtp.cancer.gov/organization/dscb/obtaining/. […] The stock solutions were prepared in dimethyl sulfoxide (DMSO, Sigma-Aldrich, St. Louis, MO, cat. D2650), except for the platinum compounds which were prepared in saline (Quality Biological, Gaithersburg, MD, cat. 114-055-101), at 800-fold the tested concentration and stored at -70 degrees C prior to their use. All drugs and investigational agents were tested over a range starting from a high concentration at or near the clinical Cmax and decreasing in half-log increments. If the clinical Cmax for an agent had not been determined, the highest concentration tested was 10 microM, except for SN-38, which was tested at a high concentration of 1 microM.
Cell Culture. All cells were maintained in an incubator at 37 degrees C and 5% CO2 with 95% humidity. The PDC lines were cultured according to standard operating procedures established by the NCI PDMR (https://pdmr.cancer.gov). Table 3 of the manuscript, lists the cell lines along with the number of the three cell types plated to form the mct-spheroids and media for tumor cell growth. After thawing, all PDC lines, except 997537-175-T-J1-PDC and 415267-285-R-J2-PDC, were cultured in Matrigel-coated flasks prepared with a working solution of 1X Ham's F-12 nutrient mix, without supplementation (Thermo Fisher Scientific, cat. 11765054), 100 U/mL penicillin-streptomycin (Thermo Fisher Scientific, cat. 15140122), and 2.5% Matrigel (Corning Inc., Corning, NY, cat. 354248) for the first three passages. The two PDC lines 997537-175-T-J1-PDC and 415267-285-R-J2-PDC were cultured on uncoated flasks. The 857933-349-R-J2-PDC line was cultured in 6C/Colon 1B media containing advanced DMEM/F-12 (Thermo Fisher Scientific, cat. 12634028), 10 mM HEPES (Thermo Fisher Scientific, cat. 15630080), 1X GlutaMAX supplement (Thermo Fisher Scientific, cat. 35050061), 0.1 mg/mL primocin (InvivoGen, San Diego, CA, cat. ant-pm-2), 10% defined fetal bovine serum, heat inactivated (HyClone Laboratories Inc., Logan, UT, cat. SH30070.03HI), 50% L-WRN conditioned media (ATCC, cat. CRL-3276), 1.25 mM N-Acetyl-L-cysteine (Sigma-Aldrich, cat. A9165), 10 mM nicotinamide (Sigma-Aldrich, cat. N0636), 1X B-27 supplement (Thermo Fisher Scientific, cat. 17504044), 1X N-2 supplement (Thermo Fisher Scientific, cat. […]

[1] = second compound 0.0316 µM, first compound 0.00316 µM
[2] = second compound 0.0316 µM, first compound 0.01 µM
[3] = second compound 0.0316 µM, first compound 0.0316 µM
[4] = second compound 0.0316 µM, first compound 0.1 µM
[5] = second compound 0.1 µM, first compound 0.00316 µM
[6] = second compound 0.1 µM, first compound 0.01 µM
[7] = second compound 0.1 µM, first compound 0.0316 µM
[8] = second compound 0.1 µM, first compound 0.1 µM
[9] = second compound 0.316 µM, first compound 0.00316 µM
[10] = second compound 0.316 µM, first compound 0.01 µM
[11] = second compound 0.316 µM, first compound 0.0316 µM
[12] = second compound 0.316 µM, first compound 0.1 µM
[13] = second compound 1 µM, first compound 0.00316 µM
[14] = second compound 1 µM, first compound 0.01 µM
[15] = second compound 1 µM, first compound 0.0316 µM
[16] = second compound 1 µM, first compound 0.1 µM
[17] = second compound 3.16 µM, first compound 0.00316 µM
[18] = second compound 3.16 µM, first compound 0.01 µM
[19] = second compound 3.16 µM, first compound 0.0316 µM
[20] = second compound 3.16 µM, first compound 0.1 µM
[21] = second compound 10 µM, first compound 0.00316 µM
[22] = second compound 10 µM, first compound 0.01 µM
[23] = second compound 10 µM, first compound 0.0316 µM
[24] = second compound 10 µM, first compound 0.1 µM
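Also: spheroids exposed to drugs for one week before readout.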
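For viability, T/C in this document: percent viability relative to DMSO vehicle control wells set as 100%.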

C=CCn1c(=O)c2cnc(Nc3ccc(N4CCN(C)CC4)cc3)nc2n1-c1cccc(C(C)(C)O)n1 + COC1C(OC(N)=O)C(O)C(Oc2ccc3c(O)c(NC(=O)c4ccc(O)c(CC=C(C)C)c4)c(=O)oc3c2C)OC1(C)C
0.47 µM: IC50 (second compound 10 µM)
inactive: viability, T/C [1] 106% | viability, T/C [2] 95.1% | viability, T/C [3] 93% | viability, T/C [4] 85.3% | viability, T/C (second compound 0.0316 µM, first compound 0.316 µM) 54.1% | viability, T/C (second compound 0.0316 µM, first compound 1 µM) 41.6% | viability, T/C [5] 102% | viability, T/C [6] 105% | viability, T/C [7] 90.7% | viability, T/C [8] 80% | viability, T/C (second compound 0.1 µM, first compound 0.316 µM) 57.7% | viability, T/C (second compound 0.1 µM, first compound 1 µM) 32.2% | viability, T/C [9] 88% | viability, T/C [10] 86.1% | viability, T/C [11] 78.3% | viability, T/C [12] 87.4% | viability, T/C (second compound 0.316 µM, first compound 0.316 µM) 52.8% | viability, T/C (second compound 0.316 µM, first compound 1 µM) 40.7% | viability, T/C [13] 84.4% | viability, T/C [14] 98.5% | viability, T/C [15] 93.3% | viability, T/C [16] 85.2% | viability, T/C (second compound 1 µM, first compound 0.316 µM) 50.9% | viability, T/C (second compound 1 µM, first compound 1 µM) 37.1% | viability, T/C [17] 93.6% | viability, T/C [18] 104% | viability, T/C [19] 89.1% | viability, T/C [20] 70.9% | viability, T/C (second compound 3.16 µM, first compound 0.316 µM) 47.7% | viability, T/C (second compound 3.16 µM, first compound 1 µM) 37.7% | viability, T/C [21] 98% | viability, T/C [22] 109% | viability, T/C [23] 91.3% | viability, T/C [24] 80.5% | viability, T/C (second compound 10 µM, first compound 0.316 µM) 56.6% | viability, T/C (second compound 10 µM, first compound 1 µM) 37.6%
0.445 µM: IC50 (second compound 0.1 µM)
0.494 µM: IC50 (second compound 0.0316 µM)
0.339 µM: IC50 (second compound 1 µM)
0.414 µM: IC50 (second compound 0.316 µM)
0.277 µM: IC50 (second compound 3.16 µM)

CC[C@@]1(O)C(=O)OCc2c1cc1n(c2=O)Cc2cc3c(CN(C)C)c(O)ccc3nc2-1 + COC1C(OC(N)=O)C(O)C(Oc2ccc3c(O)c(NC(=O)c4ccc(O)c(CC=C(C)C)c4)c(=O)oc3c2C)OC1(C)C
0.0981 µM: IC50 (second compound 3.16 µM)
0.0795 µM: IC50 (second compound 10 µM)
0.0661 µM: IC50 (second compound 1 µM)
0.0865 µM: IC50 (second compound 0.1 µM)
> 0.1 µM: IC50 (second compound 0.0316 µM) | IC50 (second compound 0.316 µM)
inactive: viability, T/C (second compound 0.0316 µM, first compound 0.000316 µM) 102% | viability, T/C (second compound 0.0316 µM, first compound 0.001 µM) 92.5% | viability, T/C [1] 85.7% | viability, T/C [2] 72.3% | viability, T/C [3] 70.9% | viability, T/C [4] 47.7% | viability, T/C (second compound 0.1 µM, first compound 0.000316 µM) 80.4% | viability, T/C (second compound 0.1 µM, first compound 0.001 µM) 105% | viability, T/C [5] 80.4% | viability, T/C [6] 75.7% | viability, T/C [7] 72.1% | viability, T/C [8] 46.6% | viability, T/C (second compound 0.316 µM, first compound 0.000316 µM) 107% | viability, T/C (second compound 0.316 µM, first compound 0.001 µM) 106% | viability, T/C [9] 77.9% | viability, T/C [10] 65.9% | viability, T/C [11] 76.2% | viability, T/C [12] 54.6% | viability, T/C (second compound 1 µM, first compound 0.000316 µM) 83.4% | viability, T/C (second compound 1 µM, first compound 0.001 µM) 70.5% | viability, T/C [13] 75.8% | viability, T/C [14] 73.2% | viability, T/C [15] 60.8% | viability, T/C [16] 43.5% | viability, T/C (second compound 3.16 µM, first compound 0.000316 µM) 94.2% | viability, T/C (second compound 3.16 µM, first compound 0.001 µM) 93.7% | viability, T/C [17] 82.5% | viability, T/C [18] 83.5% | viability, T/C [19] 72.9% | viability, T/C [20] 48.6% | viability, T/C (second compound 10 µM, first compound 0.000316 µM) 84.8% | viability, T/C (second compound 10 µM, first compound 0.001 µM) 88.8% | viability, T/C [21] 81.1% | viability, T/C [22] 71.1% | viability, T/C [23] 73.8% | viability, T/C [24] 44.2%
